Test results reported in ChEMBL document CHEMBL3991601, “The target landscape of clinical kinase drugs” (Science, 2017).
Active and inactive are the calls of the source.

Legend:
Midasin = Midasin (Homo sapiens, UniProt Q9NU22)
[1] = biological target: Serine/threonine-protein kinase 26 (Homo sapiens, UniProt Q9P289)
Ephrin type-A receptor 2 = Ephrin type-A receptor 2 (Homo sapiens, UniProt P29317)
[2] = biological target: Tyrosine-protein kinase FRK (Homo sapiens, UniProt P42685)
[3] = biological target: T1, Glycogen phosphorylase, brain form (Homo sapiens, UniProt P11216)
T1 sequence (P11216 whole entry): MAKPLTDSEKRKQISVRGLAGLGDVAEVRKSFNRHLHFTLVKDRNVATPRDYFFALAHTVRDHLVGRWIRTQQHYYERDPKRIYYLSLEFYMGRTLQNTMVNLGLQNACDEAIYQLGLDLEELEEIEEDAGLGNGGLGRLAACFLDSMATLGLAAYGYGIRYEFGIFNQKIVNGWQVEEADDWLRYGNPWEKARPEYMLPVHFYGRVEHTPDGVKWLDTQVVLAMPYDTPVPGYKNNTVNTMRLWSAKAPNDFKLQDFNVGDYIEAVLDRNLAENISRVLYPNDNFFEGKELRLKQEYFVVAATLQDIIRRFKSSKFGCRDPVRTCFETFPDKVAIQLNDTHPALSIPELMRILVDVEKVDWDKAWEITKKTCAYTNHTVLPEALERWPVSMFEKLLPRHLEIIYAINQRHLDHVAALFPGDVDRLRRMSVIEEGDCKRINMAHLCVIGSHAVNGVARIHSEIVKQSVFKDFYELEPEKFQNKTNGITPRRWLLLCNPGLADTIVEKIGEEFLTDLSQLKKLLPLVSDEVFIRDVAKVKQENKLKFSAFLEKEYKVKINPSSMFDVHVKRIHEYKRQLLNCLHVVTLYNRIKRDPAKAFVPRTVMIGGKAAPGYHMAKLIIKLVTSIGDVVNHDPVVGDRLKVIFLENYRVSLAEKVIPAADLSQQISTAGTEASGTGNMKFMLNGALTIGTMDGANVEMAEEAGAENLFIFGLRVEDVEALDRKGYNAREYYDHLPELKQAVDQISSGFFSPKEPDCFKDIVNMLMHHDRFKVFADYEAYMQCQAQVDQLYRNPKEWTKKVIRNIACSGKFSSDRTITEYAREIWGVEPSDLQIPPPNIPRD

[4] = biological target: T2, Peroxisomal acyl-coenzyme A oxidase 3 (Homo sapiens, UniProt O15254)
T2 sequence (O15254 whole entry): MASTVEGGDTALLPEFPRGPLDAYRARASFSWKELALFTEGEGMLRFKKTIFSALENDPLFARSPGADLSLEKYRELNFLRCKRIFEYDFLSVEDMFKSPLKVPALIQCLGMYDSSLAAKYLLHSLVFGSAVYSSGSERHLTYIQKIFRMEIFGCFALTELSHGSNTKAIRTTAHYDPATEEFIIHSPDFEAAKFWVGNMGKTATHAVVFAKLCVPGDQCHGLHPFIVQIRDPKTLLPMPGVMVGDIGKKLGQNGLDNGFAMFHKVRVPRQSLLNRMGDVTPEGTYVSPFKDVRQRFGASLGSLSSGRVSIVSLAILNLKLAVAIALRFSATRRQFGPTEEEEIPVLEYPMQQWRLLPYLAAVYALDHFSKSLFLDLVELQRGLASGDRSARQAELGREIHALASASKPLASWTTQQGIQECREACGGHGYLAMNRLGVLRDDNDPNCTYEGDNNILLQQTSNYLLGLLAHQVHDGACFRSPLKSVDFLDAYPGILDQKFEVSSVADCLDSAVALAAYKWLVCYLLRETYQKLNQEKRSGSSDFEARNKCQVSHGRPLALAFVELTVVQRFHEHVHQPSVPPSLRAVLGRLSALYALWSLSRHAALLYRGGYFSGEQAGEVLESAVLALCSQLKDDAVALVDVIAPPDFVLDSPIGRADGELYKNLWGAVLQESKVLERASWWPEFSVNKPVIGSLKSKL

[5] = biological target: Cyclin-dependent kinase 12 (Homo sapiens, UniProt Q9NYV4)
LIM domain kinase 2 = LIM domain kinase 2 (Homo sapiens, UniProt P53671)
[6] = biological target: Non-receptor tyrosine-protein kinase TYK2 (Homo sapiens, UniProt P29597)
Chain of Non-receptor tyrosine-protein kinase TYK2 (P29597 whole entry): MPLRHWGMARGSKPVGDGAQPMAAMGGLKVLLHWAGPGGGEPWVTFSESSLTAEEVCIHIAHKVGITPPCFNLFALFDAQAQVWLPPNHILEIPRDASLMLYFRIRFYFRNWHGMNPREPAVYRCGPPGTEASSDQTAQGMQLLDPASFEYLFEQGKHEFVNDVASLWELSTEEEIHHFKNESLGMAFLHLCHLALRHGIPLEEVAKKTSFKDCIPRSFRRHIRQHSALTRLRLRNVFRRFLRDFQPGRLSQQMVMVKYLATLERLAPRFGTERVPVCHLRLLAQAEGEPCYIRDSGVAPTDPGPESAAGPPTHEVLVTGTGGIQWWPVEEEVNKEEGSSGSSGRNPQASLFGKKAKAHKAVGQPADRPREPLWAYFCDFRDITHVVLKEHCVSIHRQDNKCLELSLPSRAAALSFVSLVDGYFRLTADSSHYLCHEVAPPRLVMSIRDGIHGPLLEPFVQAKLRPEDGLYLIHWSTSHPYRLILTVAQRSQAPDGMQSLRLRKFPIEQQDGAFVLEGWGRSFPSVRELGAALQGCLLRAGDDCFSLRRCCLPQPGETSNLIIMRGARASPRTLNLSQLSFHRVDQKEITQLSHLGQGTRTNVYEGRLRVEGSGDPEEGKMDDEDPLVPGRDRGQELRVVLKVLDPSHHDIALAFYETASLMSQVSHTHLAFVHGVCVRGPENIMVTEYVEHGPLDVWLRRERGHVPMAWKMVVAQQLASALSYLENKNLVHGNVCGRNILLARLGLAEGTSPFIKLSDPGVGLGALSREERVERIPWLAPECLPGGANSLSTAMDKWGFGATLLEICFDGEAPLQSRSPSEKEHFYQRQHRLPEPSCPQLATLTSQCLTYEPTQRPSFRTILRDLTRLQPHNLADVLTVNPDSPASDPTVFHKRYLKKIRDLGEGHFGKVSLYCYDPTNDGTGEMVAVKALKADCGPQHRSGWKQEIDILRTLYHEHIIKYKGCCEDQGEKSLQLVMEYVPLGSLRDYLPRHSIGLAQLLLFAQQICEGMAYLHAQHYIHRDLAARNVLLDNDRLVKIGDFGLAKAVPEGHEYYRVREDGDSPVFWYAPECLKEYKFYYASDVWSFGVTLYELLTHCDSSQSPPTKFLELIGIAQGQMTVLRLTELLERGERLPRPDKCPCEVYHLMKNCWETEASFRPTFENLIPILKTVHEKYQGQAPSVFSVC

[7] = biological target: Mitogen-activated protein kinase kinase kinase kinase 1 (Homo sapiens, UniProt Q92918)
Chain of Mitogen-activated protein kinase kinase kinase kinase 1 (Q92918 whole entry): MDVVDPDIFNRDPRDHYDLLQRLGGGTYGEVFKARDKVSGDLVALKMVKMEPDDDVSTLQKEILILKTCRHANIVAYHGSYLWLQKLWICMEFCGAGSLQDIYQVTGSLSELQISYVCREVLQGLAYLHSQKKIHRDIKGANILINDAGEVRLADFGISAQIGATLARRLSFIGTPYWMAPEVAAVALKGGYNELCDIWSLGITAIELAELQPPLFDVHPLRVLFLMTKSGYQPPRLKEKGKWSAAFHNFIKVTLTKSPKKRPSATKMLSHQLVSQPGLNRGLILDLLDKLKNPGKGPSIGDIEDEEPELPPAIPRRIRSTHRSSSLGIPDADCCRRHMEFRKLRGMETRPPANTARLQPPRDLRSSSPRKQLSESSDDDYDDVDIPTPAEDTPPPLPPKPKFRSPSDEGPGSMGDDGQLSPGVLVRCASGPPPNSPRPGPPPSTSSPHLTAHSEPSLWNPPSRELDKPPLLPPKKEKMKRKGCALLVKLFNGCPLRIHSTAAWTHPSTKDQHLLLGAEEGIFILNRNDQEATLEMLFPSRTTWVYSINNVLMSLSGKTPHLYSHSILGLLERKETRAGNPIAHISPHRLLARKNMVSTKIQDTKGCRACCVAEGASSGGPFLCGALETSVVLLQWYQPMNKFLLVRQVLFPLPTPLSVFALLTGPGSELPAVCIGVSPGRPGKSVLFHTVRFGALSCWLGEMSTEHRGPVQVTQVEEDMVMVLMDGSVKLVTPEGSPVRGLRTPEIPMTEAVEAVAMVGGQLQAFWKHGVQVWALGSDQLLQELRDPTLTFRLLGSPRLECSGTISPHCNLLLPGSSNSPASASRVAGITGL

[8] = biological target: Chromodomain-helicase-DNA-binding protein 4 (Homo sapiens, UniProt Q14839)
Chain of Chromodomain-helicase-DNA-binding protein 4 (Q14839 whole entry): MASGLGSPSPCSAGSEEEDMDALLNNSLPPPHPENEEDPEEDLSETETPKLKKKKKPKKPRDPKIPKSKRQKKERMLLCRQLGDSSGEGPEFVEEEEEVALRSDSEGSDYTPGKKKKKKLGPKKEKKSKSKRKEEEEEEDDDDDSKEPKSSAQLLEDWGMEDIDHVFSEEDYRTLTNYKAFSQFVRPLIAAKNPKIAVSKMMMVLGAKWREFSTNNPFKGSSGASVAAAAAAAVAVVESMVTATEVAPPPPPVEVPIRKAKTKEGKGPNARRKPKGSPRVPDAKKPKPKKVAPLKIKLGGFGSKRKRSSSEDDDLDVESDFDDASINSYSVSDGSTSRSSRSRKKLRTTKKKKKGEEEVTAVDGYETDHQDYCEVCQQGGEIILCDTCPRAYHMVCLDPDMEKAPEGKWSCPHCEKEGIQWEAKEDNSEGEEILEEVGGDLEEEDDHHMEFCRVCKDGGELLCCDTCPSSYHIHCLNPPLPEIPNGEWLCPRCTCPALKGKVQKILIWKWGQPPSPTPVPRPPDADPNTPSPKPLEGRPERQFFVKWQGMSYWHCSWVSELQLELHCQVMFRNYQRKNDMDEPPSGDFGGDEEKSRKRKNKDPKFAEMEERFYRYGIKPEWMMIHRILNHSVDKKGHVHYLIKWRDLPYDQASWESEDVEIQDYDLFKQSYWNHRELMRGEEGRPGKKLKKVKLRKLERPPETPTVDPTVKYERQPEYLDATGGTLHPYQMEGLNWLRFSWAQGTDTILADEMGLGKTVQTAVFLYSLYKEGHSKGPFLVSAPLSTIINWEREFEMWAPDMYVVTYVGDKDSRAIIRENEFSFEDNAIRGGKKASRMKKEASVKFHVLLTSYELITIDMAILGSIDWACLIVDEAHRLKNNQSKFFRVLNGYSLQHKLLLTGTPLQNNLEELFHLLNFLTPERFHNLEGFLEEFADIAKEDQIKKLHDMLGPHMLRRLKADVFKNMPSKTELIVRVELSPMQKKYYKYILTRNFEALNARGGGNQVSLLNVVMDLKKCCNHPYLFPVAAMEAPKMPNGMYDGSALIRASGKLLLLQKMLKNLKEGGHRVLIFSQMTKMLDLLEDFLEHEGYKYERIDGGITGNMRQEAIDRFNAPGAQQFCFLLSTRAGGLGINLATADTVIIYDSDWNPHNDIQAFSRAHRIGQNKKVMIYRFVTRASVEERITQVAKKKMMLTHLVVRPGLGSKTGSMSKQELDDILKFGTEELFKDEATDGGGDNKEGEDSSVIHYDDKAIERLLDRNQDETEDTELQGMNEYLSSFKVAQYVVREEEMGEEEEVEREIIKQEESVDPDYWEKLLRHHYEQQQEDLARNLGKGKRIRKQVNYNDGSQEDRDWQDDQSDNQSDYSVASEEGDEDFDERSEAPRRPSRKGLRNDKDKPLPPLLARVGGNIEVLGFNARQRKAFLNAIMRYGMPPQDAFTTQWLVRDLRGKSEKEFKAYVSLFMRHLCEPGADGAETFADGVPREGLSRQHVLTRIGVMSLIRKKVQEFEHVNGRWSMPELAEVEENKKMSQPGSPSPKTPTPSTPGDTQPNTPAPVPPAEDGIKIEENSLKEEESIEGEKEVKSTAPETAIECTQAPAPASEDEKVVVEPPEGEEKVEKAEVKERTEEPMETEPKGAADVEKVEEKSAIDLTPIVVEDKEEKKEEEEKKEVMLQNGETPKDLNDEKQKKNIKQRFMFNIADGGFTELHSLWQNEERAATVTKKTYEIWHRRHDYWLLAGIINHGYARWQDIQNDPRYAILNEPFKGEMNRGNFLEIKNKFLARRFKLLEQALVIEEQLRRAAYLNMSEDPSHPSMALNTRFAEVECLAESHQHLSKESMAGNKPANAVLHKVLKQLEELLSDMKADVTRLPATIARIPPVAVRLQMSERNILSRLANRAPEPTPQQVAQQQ

[9] = biological target: T3, Membrane-associated tyrosine- and threonine-specific cdc2-inhibitory kinase (Homo sapiens, UniProt Q99640)
T3 sequence (Q99640 whole entry): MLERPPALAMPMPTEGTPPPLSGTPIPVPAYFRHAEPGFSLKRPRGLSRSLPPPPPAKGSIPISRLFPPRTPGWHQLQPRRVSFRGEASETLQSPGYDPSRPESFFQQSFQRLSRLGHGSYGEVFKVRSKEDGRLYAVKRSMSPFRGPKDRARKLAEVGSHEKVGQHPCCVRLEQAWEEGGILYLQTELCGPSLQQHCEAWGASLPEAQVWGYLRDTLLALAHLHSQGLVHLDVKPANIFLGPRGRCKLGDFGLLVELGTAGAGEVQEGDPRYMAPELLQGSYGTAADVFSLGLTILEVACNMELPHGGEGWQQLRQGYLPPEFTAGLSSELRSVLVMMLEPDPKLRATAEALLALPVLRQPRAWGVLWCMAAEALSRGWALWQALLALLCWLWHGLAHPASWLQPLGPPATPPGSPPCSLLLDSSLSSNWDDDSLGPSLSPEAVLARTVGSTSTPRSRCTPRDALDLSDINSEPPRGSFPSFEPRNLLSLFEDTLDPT

[10] = biological target: Fibroblast growth factor receptor 1 (Homo sapiens, UniProt P11362)
Also: in the data inactive means no Kd found up to 30 µM.

Chain of Serine/threonine-protein kinase 26 (Q9P289 whole entry): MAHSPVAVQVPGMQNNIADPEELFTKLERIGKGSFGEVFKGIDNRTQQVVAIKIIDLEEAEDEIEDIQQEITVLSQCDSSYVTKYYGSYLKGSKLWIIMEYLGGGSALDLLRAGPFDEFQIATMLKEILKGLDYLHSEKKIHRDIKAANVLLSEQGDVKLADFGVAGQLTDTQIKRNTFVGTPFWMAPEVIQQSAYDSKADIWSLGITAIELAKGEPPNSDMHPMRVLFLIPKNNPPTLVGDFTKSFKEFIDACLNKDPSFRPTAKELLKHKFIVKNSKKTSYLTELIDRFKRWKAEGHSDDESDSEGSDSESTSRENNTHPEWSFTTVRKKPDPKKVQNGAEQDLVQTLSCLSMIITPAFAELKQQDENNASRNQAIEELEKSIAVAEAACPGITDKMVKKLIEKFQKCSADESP
Chain of Tyrosine-protein kinase FRK (P42685 whole entry): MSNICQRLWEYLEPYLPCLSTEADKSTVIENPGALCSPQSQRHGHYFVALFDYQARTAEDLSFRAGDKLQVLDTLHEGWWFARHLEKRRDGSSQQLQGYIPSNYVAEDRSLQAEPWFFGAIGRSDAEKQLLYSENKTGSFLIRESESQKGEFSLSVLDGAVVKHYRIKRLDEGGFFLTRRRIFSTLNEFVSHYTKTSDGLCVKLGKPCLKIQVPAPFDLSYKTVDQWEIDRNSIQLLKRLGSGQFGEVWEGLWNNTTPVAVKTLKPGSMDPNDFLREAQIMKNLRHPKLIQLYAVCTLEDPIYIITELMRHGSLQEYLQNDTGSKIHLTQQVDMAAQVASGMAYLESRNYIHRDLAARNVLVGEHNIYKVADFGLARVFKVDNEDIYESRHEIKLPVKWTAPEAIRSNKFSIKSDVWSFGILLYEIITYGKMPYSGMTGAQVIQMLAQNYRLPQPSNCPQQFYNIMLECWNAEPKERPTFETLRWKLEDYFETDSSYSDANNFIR

Row | Kd (Midasin) | Kd (Ephrin type-A receptor 2) | Kd [2] | Kd [3] | Kd [4] | Kd [5] | Kd [6] | Kd [8] | Kd [9] | Kd [10] | Compound | Kd [1] | Kd (LIM domain kinase 2) | Kd [7]
1 | > 30 µM (inactive) |  |  | > 30 µM (inactive) | > 30 µM (inactive) | > 30 µM (inactive) |  | > 30 µM (inactive) |  |  | CN(C)C/C=C/C(=O)Nc1cc2c(Nc3ccc(F)c(Cl)c3)ncnc2cc1O[C@H]1CCOC1 [AFATINIB] |  |  | 
2 | > 30 µM (inactive) | > 30 µM (inactive) | > 30 µM (inactive) | > 30 µM (inactive) | > 30 µM (inactive) | > 30 µM (inactive) | > 30 µM (inactive) | > 30 µM (inactive) | > 30 µM (inactive) |  | CCN(CCCOc1ccc2c(Nc3cc(CC(=O)Nc4cccc(F)c4)n[nH]3)ncnc2c1)CCOP(=O)(O)O [BARASERTIB] | > 30 µM (inactive) | > 30 µM (inactive) | > 30 µM (inactive)
3 | > 30 µM (inactive) |  |  | > 30 µM (inactive) | > 30 µM (inactive) | > 30 µM (inactive) |  | > 30 µM (inactive) |  |  | C[C@@]1(C(=O)Nc2ccc(F)nc2)CCCN1c1nc(Nc2cc(C3CC3)n[nH]2)c2cccn2n1 [BMS-754807] |  |  | 
4 | > 30 µM (inactive) | > 30 µM (inactive) | 0.33 µM (active) |  | > 30 µM (inactive) | > 30 µM (inactive) |  | > 30 µM (inactive) | > 30 µM (inactive) | > 30 µM (inactive) | CCOc1ccn(-c2ccc(F)cc2)c(=O)c1C(=O)Nc1ccc(Oc2ccnc(N)c2Cl)c(F)c1 [BMS-777607] | > 30 µM (inactive) | > 30 µM (inactive) | > 30 µM (inactive)
5 | > 30 µM (inactive) |  |  | > 30 µM (inactive) | > 30 µM (inactive) | > 30 µM (inactive) |  | > 30 µM (inactive) |  |  | COc1cc2c(Oc3ccc4[nH]c(C)cc4c3F)ncnc2cc1OCCCN1CCCC1 [CEDIRANIB] |  |  | 
6 | > 30 µM (inactive) | > 30 µM (inactive) | > 30 µM (inactive) | > 30 µM (inactive) | > 30 µM (inactive) | > 30 µM (inactive) | > 30 µM (inactive) | > 30 µM (inactive) | > 30 µM (inactive) |  | Cn1c(=O)n(-c2ccc(C(C)(C)C#N)cc2)c2c3cc(-c4cnc5ccccc5c4)ccc3ncc21 [DACTOLISIB] | > 30 µM (inactive) | > 30 µM (inactive) | > 30 µM (inactive)
7 | > 30 µM (inactive) | > 30 µM (inactive) | > 30 µM (inactive) | > 30 µM (inactive) | > 30 µM (inactive) | > 30 µM (inactive) |  | > 30 µM (inactive) | > 30 µM (inactive) | > 30 µM (inactive) | CC[C@@](C)(Nc1ccnc(-c2c[nH]c3ncccc23)n1)C(=O)NCC(F)(F)F [DECERNOTINIB] | 1.14 µM (active) | > 30 µM (inactive) | > 30 µM (inactive)
8 | > 30 µM (inactive) | > 30 µM (inactive) | > 30 µM (inactive) | > 30 µM (inactive) | > 30 µM (inactive) | > 30 µM (inactive) | > 30 µM (inactive) | > 30 µM (inactive) | > 30 µM (inactive) |  | O=S(=O)(c1cccc2c(O)nccc12)N1CCCNCC1 [HYDROXYFASUDIL] | > 30 µM (inactive) | > 30 µM (inactive) | > 30 µM (inactive)
9 | > 30 µM (inactive) |  |  | > 30 µM (inactive) | > 30 µM (inactive) | > 30 µM (inactive) |  | > 30 µM (inactive) |  |  | CC1(C)CNc2cc(NC(=O)c3cccnc3NCc3ccncc3)ccc21 [MOTESANIB] |  |  | 
10 | > 30 µM (inactive) |  |  | > 30 µM (inactive) | > 30 µM (inactive) | > 30 µM (inactive) |  | > 30 µM (inactive) |  |  | Cn1cnc2c(F)c(Nc3ccc(Br)cc3Cl)c(C(=O)NOCCO)cc21 [SELUMETINIB] |  |  | 
11 | > 30 µM (inactive) |  |  | > 30 µM (inactive) | > 30 µM (inactive) | > 30 µM (inactive) |  | > 30 µM (inactive) |  |  | COc1cc2c(N3CCN(C(=O)Nc4ccc(OC(C)C)cc4)CC3)ncnc2cc1OCCCN1CCCCC1 [TANDUTINIB] |  |  | 

Row | Compound | Kd (Midasin) | Kd (Ephrin type-A receptor 2) | Kd [2] | Kd [3] | Kd [4] | Kd [5] | Kd [6] | Kd [8] | Kd [9] | Kd [10] | Kd [1] | Kd (LIM domain kinase 2) | Kd [7]
12 | C=CCn1c(=O)c2cnc(Nc3ccc(N4CCN(C)CC4)cc3)nc2n1-c1cccc(C(C)(C)O)n1 [ADAVOSERTIB] | > 30 µM (inactive) | > 30 µM (inactive) | > 30 µM (inactive) | > 30 µM (inactive) | > 30 µM (inactive) | > 30 µM (inactive) | > 30 µM (inactive) | > 30 µM (inactive) |  |  | > 30 µM (inactive) | > 30 µM (inactive) | > 30 µM (inactive)
13 | O=S(=O)(c1cccc2cnccc12)N1CCCNCC1 [FASUDIL] | > 30 µM (inactive) |  | > 30 µM (inactive) | > 30 µM (inactive) | > 30 µM (inactive) | 3.48 µM (active) |  | > 30 µM (inactive) | > 30 µM (inactive) |  | > 30 µM (inactive) | > 30 µM (inactive) | > 30 µM (inactive)
14 | C[C@]1(O)C[C@@H](c2nc(-c3ccc4ccc(-c5ccccc5)nc4c3)c3c(N)nccn32)C1 [LINSITINIB] | > 30 µM (inactive) |  |  | > 30 µM (inactive) | > 30 µM (inactive) | > 30 µM (inactive) |  | > 30 µM (inactive) | > 30 µM (inactive) |  | > 30 µM (inactive) | > 30 µM (inactive) | > 30 µM (inactive)
15 | N#CCNC(=O)c1ccc(-c2ccnc(Nc3ccc(N4CCOCC4)cc3)n2)cc1 [MOMELOTINIB] | > 30 µM (inactive) | > 30 µM (inactive) | > 30 µM (inactive) | > 30 µM (inactive) | > 30 µM (inactive) | > 30 µM (inactive) |  |  | > 30 µM (inactive) | > 30 µM (inactive) | > 30 µM (inactive) | > 30 µM (inactive) | > 30 µM (inactive)
16 | CN(c1ncccc1CNc1nc(Nc2ccc3c(c2)CC(=O)N3)ncc1C(F)(F)F)S(C)(=O)=O [PF-00562271] | > 30 µM (inactive) |  |  | > 30 µM (inactive) | > 30 µM (inactive) | > 30 µM (inactive) |  | > 30 µM (inactive) | > 30 µM (inactive) |  | 0.012 µM | > 30 µM (inactive) | 3.98 µM (active)
